Data published in publication PMC10539501 (Nature Communications, 2023).
Where two headings read alike, the source gives them in different places. Non-standard residues stand in square brackets, D forms with d. Residues, ends and D or L forms follow the SMILES beside them.

What was measured:
in vitro [1] = settings: pig, simulated intestinal fluid
pepsin [2] = target: T1, pepsin (Sus scrofa, UniProt P00791); assay: in vitro; settings: simulated gastric fluid, pH 1.2
in vivo [3] = settings: male, Wistar, rat
[4] = format: physicochemical
[5] = format: physicochemical; remark: listed apart in the source
[6] = HDX of amide protons by NMR in DMSO-d6:D2O (8:2)
in vitro [7] = settings: human, microsomes
in vitro [8] = settings: both, human, plasma
in vitro [9] = settings: both, human, plasma; remark: listed apart in the source
[10] = Retention in hydrophobic C18 column by HPLC; settings: Supplementary Fig 3d, logD7.4 vs tR
[11] = HDX of amide protons by NMR in CDCl3:CD3OD (8:2)
pepsin [12] = target: T1, pepsin; settings: pH 1.2
[13] = rat, in vivo
[14] = blood plasma, cited from earlier work
From the text: Next, we sought to assess the in vivo efficacy of the thioamidated somatostatin analogs post s.c. administration. Somatostatin, first known to inhibit the release of growth hormone, induces its biological effects by interacting with five of its G-protein-coupled receptor subtypes SSTR1-SSTR5[50]. Out of which, the SSTR2 and SSTR5 have gained significant attention due to their role in mediating the inhibition of growth hormone and antiproliferative effects of somatostatin on tumor growth. […]

[15] = test system: growth hormone (GH) release; assay: In vivo inhibition of growth hormone release (sandwich ELISA); parameters: species or system rats
Protocol: In vivo inhibition of GH. Finally, we estimated the in vivo efficacy of 13 and the thioamidated analogs 13b, 13d, and 13e in suppressing the release of growth hormone (GH) post subcutaneous injection at 250 μg/kg dosage (Fig. 7e). 13a was also included as a negative control to assess its effect on GH release. The rats were bled from their orbital sinus, and the plasma GH levels were evaluated through sandwich ELISA. […] This correlates well with the high plasma concentration of 13 at the initial time points and a rapid drop within 2 h of s.c. administration (Fig. 7c). […] In contrast, the inhibitory effect lasts longer in 13b, 13d, and 13e showing a significant reduction in plasma GH levels within 24–48 h (Fig. 7h). […] The rapid drop in plasma concentration of 13 is responsible for its least in vivo efficacy.
Animal housing and acclimatization were done at Central Animal Facility, IISc Bangalore, as mentioned in the previous section, following protocols from the IEAC and CPCSEA. […] Samples were processed as discussed in Supplementary Information, and sandwich ELISA was performed to measure the growth hormone level in blood plasma. For acute toxicity, after peptide injection (s.c.), blood samples were collected on the 14th day for liver and kidney function tests.

SSTR2 = target: T2, SSTR2 (Homo sapiens, UniProt P30874); assay: GloSensor assay, inhibition of forskolin-induced cAMP production; format: cell-based
T2 construct: expressed in transfected cells; host or cells: HEK-293T (CRL-3216)
T2 sequence (P30874 whole entry): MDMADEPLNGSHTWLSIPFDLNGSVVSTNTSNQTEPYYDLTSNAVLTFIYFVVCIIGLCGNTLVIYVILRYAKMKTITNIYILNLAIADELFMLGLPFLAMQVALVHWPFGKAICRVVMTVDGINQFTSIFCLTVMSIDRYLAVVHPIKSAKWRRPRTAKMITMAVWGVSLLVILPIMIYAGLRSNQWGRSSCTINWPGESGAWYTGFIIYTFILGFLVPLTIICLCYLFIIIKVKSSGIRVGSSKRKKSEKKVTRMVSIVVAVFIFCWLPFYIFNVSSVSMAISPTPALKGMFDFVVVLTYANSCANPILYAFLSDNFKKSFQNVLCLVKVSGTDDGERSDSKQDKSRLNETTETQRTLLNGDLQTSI

SSTR5 = target: T3, SSTR5 (Homo sapiens, UniProt P35346); assay: as above; format: cell-based
T3 construct: expressed in transfected cells; host or cells: HEK-293T (CRL-3216)
T3 sequence (P35346 whole entry): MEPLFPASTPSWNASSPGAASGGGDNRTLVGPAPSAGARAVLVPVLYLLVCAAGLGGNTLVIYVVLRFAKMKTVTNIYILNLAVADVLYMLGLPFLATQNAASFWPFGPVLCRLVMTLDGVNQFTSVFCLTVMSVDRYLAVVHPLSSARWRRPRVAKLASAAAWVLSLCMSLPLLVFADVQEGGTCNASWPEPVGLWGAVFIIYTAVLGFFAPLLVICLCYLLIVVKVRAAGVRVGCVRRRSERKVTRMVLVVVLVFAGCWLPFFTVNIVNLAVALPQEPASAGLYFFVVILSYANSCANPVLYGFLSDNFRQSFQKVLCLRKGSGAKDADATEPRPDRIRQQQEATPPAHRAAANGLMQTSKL
Protocol: HEK-293T cells (CRL-3216 from ATCC, procured from NCCS, Pune) were co-transfected with human somatostatin receptor subtypes 2 & 5, plasmid cDNA, and cAMP biosensor (pGloSensorTM-22F plasmid; Promega Corp.) using PEImax. Ligand incubation was followed by the addition and incubation of forskolin (FSK) to the plate. Dose-dependent inhibition of forskolin-induced cAMP production by the peptide ligands was measured using a luminescence plate reader. An elaborate description of the assay setup has been provided in Supplementary Information.

physchem = settings: pH 7.4
in vivo [16] = settings: male, rat, sc
[17] = PAMPA passive permeability; format: in vitro ADME; settings: Pe;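 further: passive permeability across an artificial membrane in 96-well pre-coated PAMPA plates, which lack transporters and efflux systems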
[18] = 20% CD3OD in CDCl3, % remaining after 24 hours

T1 sequence (P00791 60-385): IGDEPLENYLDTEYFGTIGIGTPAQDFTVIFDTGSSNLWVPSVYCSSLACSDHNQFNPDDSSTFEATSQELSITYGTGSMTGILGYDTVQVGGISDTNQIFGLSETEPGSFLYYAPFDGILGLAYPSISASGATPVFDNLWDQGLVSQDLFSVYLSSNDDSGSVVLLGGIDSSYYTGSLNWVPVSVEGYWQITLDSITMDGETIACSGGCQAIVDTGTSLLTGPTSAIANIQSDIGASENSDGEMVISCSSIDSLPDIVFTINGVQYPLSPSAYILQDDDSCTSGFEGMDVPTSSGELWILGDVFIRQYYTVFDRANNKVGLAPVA

## CC(C)C[C@@H]1NC(=O)[C@H](Cc2ccc(O)cc2)NC(=O)[C@H]2CCCN2C(=O)[C@H](CC(C)C)NC(=O)[C@H](CC(C)C)NC(=O)[C@@H](CC(C)C)NC1=O [compound 10, cyclo(-D-Leu^1-Leu-Leu-D-Pro-Tyr-Leu^6-)] (cyclo(LL[dP]YL[dL]))
In vitro [1]
  half-life: 0.267 h
  remaining at 10 min: 57.1%
  remaining at 0.5 h: 39%
  remaining at 1 h: 30.7%
  remaining at 2 h: 13.4%
  remaining at 4 h: 12%
  remaining at 8 h: 7.3%
  remaining at 12 h: 5.5%
  remaining at 24 h: 3%
Pepsin [2]
  half-life: 0.2 h
  remaining at 5 min: 67%
  remaining at 10 min: 54%
  remaining at 20 min: 40%
  remaining at 0.5 h: 34%
  remaining at 1 h: 22%
  remaining at 2 h: 16%
  remaining at 4 h: 10%
  remaining at 8 h: 6%
  remaining at 12 h: 2%
  remaining at 24 h: 0%
In vivo [3]; iv
  AUC(0-t): 548 ng·h/mL
  Cmax: 1050 ng/mL
  MRT: 1.6 h
  Vd: 4.1 L/kg
  clearance: 28.4 mL/min/kg
In vivo [3]; po, 10 mg/kg
  AUC(0-t): 0.9 ng·h/mL
  Cmax: 3.5 ng/mL
  MRT: 0.2 h
[4]
  logD heptane ethylene glycol: 0.46
[5]
  % solubility: 97%
[6]; HDX by NMR, 20% D2O in DMSO-d6
  Half-life of D-Leu1 amide proton (HDX): 0.25 h
  Half-life of Leu2 amide proton (HDX): 1.52 h
  Half-life of Leu3 amide proton (HDX): 3.28 h
  Half-life of Leu6 amide proton (HDX): 7.83 h
  Half-life of Tyr5 amide proton (HDX): 0.817 h
In vitro [7]
  remaining at 5 min: 55%
  remaining at 10 min: 40%
  remaining at 20 min: 33%
  remaining at 0.5 h: 29%
  remaining at 0.75 h: 22%
  remaining at 1 h: 14%
In vitro [8]
  half-life: 8 h
  remaining at 1 h: 86%
  remaining at 3 h: 80%
  remaining at 5 h: 67%
  remaining at 7 h: 59%
  remaining at 9 h: 43%
  remaining at 12 h: 37%
  remaining at 24 h: 24%
  remaining at 36 h: 19%
  remaining at 48 h: 13%
  remaining at 60 h: 4%
  remaining at 72 h: 4%
Human liver microsomes
  Half lives: 6.7
Human liver microsomes; human
  Intrinsic clearance (CLint) Avg: 225 µL/min/mg
In vitro [9]
  fraction unbound: 0.51
[10]
  tR: 9.3 min
[11]; 20% CD3OD in CDCl3
  Half-life of D-Leu1 amide proton (HDX): 7.25 h
  Half-life of Leu2 amide proton (HDX): 2 min
  Half-life of Leu3 amide proton (HDX): > 24 h
  Half-life of Leu6 amide proton (HDX): > 24 h
  Half-life of Tyr5 amide proton (HDX): 1.75 h
[11]; [18]
  % intact NH, Leu3: 72%
  % intact NH, Leu6: 90%
Pepsin [12]
  Half lives (SGF) set1: 10 min
other
  t1/2 in human blood plasma: 8 h
[13]
  %F: 0%
[13]; po, 10 mg/kg
  time over which the peptide is detectable in plasma: ≤ 1 h

## C[C@H](N)C(=O)NCC(=O)N[C@H]1CSSC[C@@H](C(=O)O)NC(=O)[C@H](CO)NC(=O)[C@H]([C@@H](C)O)NC(=O)[C@H](Cc2ccccc2)NC(=O)[C@H]([C@@H](C)O)NC(=O)[C@H](CCCCN)NC(=O)[C@H](Cc2c[nH]c3ccccc23)NC(=O)[C@H](Cc2ccccc2)NC(=O)[C@H](Cc2ccccc2)NC(=O)[C@H](CC(N)=O)NC(=O)[C@H](CCCCN)NC1=O [SRIF-14]
[14]
  plasma half-life: 3 min
[14]; listed as native somatostatin
  plasma half-life: ~ 3 min

## C[C@@H](O)[C@@H]1NC(=O)[C@H](CCCCN)NC(=O)[C@@H](Cc2c[nH]c3ccccc23)NC(=O)[C@H](Cc2ccccc2)NC(=O)[C@@H]2CCCN2C(=O)[C@H](Cc2ccccc2)NC1=O [compound 13, cyclo(-D-Trp^1-Lys-Thr-Phe-Pro-Phe^6-)] (cyclo(PF[dW]KTF))
In vitro [1]
  half-life: 1.8 h
[15]; growth hormone AUC 0-24 h, mean of n = 3
  AUC 0_24: 504 ng·h/mL
[15]; growth hormone AUC 0-48 h, mean of n = 3
  AUC 0_48: 1371 ng·h/mL
[15]; growth hormone AUC 24-48 h, mean of n = 3
  AUC 24_48: 817 ng·h/mL
[15]; rats, 250 μg/kg s.c., plasma GH by sandwich ELISA over 48 h
  inhibition of unstimulated GH release: significant inhibition
SSTR2
  IC50: 16.6 ± 4.2 nM
[4]
  logD heptane ethylene glycol: -1.43
[6]; HDX experiment by NMR, solvent not stated at the place (Supplementary Fig. 18)
  t1/2 for all HNs (HDX): < 5 min
[6]; Supplementary Fig 18b, HDX of amide proton of D-Trp1, solvent not given
  Half-lives (min), amide proton D-Trp1: >5 min
[6]; Supplementary Fig 18b, HDX of amide proton of Lys2, solvent not given
  Half-lives (min), amide proton Lys2: >5 min
[6]; Supplementary Fig 18b, HDX of amide proton of Phe4, solvent not given
  Half-lives (min), amide proton Phe4: >5 min
[6]; Supplementary Fig 18b, HDX of amide proton of Phe6, solvent not given
  Half-lives (min), amide proton Phe6: >5 min
[6]; Supplementary Fig 18b, HDX of amide proton of Thr3, solvent not given
  Half-lives (min), amide proton Thr3: >5 min
In vitro [8]
  half-life: 14 h
SSTR5
  IC50: 105 ± 24.2 nM
In vitro [9]
  fraction unbound: 0.24
physchem
  logD: -1.23
other
  t1/2 in human blood plasma: 15 ± 0.9 h
In vivo [16]; Sprague Dawley
  level at 0.5 h: 195 ng/mL
  level at 1 h: 128 ng/mL
In vivo [16]; Sprague Dawley, 250 ug/kg
  level at 2 h: 8 ng/mL
In vivo [16]; Sprague-Dawley
  half-life: 0.3 ± 0.05 h
[17]
  Papp: 1.34 ×10⁻⁶ cm/s
